≈ marks a conversion by molar mass, not a printed value.

The test system of assay [1] is Moloney murine leukemia virus (MoLV). Kind of assay: in vitro XC plaque assay: inhibition of murine leukemia virus plaque growth (mouse SC-1 cells, rat XC cells). Format: cell-based. To be noted: SC1, compounds added 2 hours prior to virus, read-out: IC50 (concentration giving a 50% inhibition of virus plaque growth). The procedure:
This assay was performed according to the method of Rowe et al. (Virology, 1970, 42, 1136-39) as previously described by L. Hsu, et al. (J. Virological Methods, 1980, 1, 167-77) and T. L. Bowlin and M. R. Proffitt (J. Interferon Res., 983, 3(1), 19-31). Mouse SC-1 cells (fibroblast) (10^5) were seeded into each well of 6-well cluster plates (Costar #3506) in 4 ml Minimum Essential Medium (MEM) with 10% Fetal Calf Serum (FCS). Following an 18 hour incubation period (37° C.), Moloney murine leukemia virus (MoLV) was applied at a predetermined titer to give optimal (i.e. countable) numbers of virus plaques. Compounds were added 2 hours prior to addition of the virus. Three days later the culture medium was removed, the SC-1 cell monolayers were exposed to UV irradiation (1800 ergs), and rat XC cells (10^6) were seeded into each well in 4 ml MEM. Following an additional 3 day incubation (37° C.), these cells were fixed with ethyl alcohol (95%) and stained with 0.3% crystal violet. Plaques were then counted under low magnification. The antiviral activities of various compounds of this invention are tabulated in Table I in terms of the IC50, i,e, the concentration giving a 50% inhibition of virus plaque growth.

Assay [2] deals with HIVlGB8 strain of HIV-1. Kind of assay: anti-HIV activity in JM T-cells pretreated with HIV-1 (syncytial cell count and p24 antigen). Format: cell-based. The note with it: after 4 days; for Syncytial count: untreated 29. The procedure: To further confirm the antiretroviral activity of these compounds, 6-(4-phenylphenoxy)hexan-1-ol was evaluated for activity against HIV. Following overnight pretreatment of T-cells (JM cells) with the HIVlGB8 strain of HIV-1, 6-(4-phenylphenoxy)hexan-1-ol was added to the cell cultures at concentrations of 15 and 7.5 μg/ml. After 4 days the number of synctial cells in the cell culture and the amount of p24 antigen, also a measure of viral replication, were determined.

For assay [3], the system named is HIV and other retroviruses. To be noted: previously shown; cited from earlier work.

Broadly, the inhibition is the change of the read-out against control, counted positive when it falls. With `OCCCCCCOc1ccc(-c2ccccc2)cc1` [6-(4-Phenylphenoxy)hexan-1-ol], the IC50 in assay [1] was in the range of 2.5 to 5 µg/mL (≈ 9.25 to 18.5 µM). Moreover, the Syncytial count is reported as 8 in assay [2] (7.5 μg/ml) and 0 in assay [2] (15 μg/ml). The P24 antigen in assay [2] (15 μg/ml, untreated 801) is 62 pg × 10^3 /ml. Also, in assay [2] (Human immunodeficiency virus 1, T-cell, 96 h, 7.5 μg/ml, syncytial count vs untreated), the inhibition at 7.5 µg/mL was found to be 72%. Moreover, in assay [2] (Human immunodeficiency virus 1, T-cell, 96 h, 15 μg/ml, syncytial count vs untreated), the inhibition at 15 µg/mL was 100%. Consider heparin, for which the “activity against HIV and other retroviruses” value in assay [3] is “activity against HIV and other retroviruses”. With `OCCCCCCOc1ccccc1` [6-Phenoxyhexan-1-ol, 6-phenoxyhexan-1-ol], in assay [1], the IC50 was determined as 1 µg/mL (≈ 5.15 µM). For `Cc1cc(C)c(OCCCCCCO)c(C)c1` [6-(2,4,6-Trimethylphenoxy)hexan-1-ol, 6-(2,4,6-trimethylphenoxy)hexan-1-ol], the IC50 in assay [1] turned out to be 5 µg/mL (≈ 21.2 µM). The same measure, in the same setting: as for `O=C(O)CCC(=O)OCCCCCCOc1ccc(-c2ccccc2)cc1` [6-(4-PhenYlphenoxV)-1-hexYl succinate (monoester)], the figure is 1 to 10 µg/mL. For the compound `O[C@H]1[C@H](O)[C@@H](O)CN2CC[C@H](O)[C@H]12` [castanospermine], the “activity against HIV and other retroviruses” value in assay [3] was “activity against HIV and other retroviruses”.

For the compound `OCCCCOc1ccc(OCc2ccccc2)cc1` [4-(4-Benzyloxyphenoxy)butan-1-ol, 4-(4-Benzyloxyphenoxy)-butan-1-ol], the IC50 in assay [1] is 1 to 10 µg/mL (≈ 3.67 to 36.7 µM). With `OCCCCCCOc1ccc(Cc2ccccc2)cc1` [6-(4-Benzylphenoxy)hexan-1-ol], the IC50 in assay [1] lay in the range of 1 to 10 µg/mL (≈ 3.52 to 35.2 µM).

On to `OCCCCCCOc1ccc(OCc2ccccc2)cc1` [6-(4-Benzyloxyphenoxy)hexan-1-ol], for which the IC50 in assay [1] was in the range of 1 to 10 µg/mL (≈ 3.33 to 33.3 µM). Still for that read-out and setting: to `OCCCCCCOc1ccc2ccccc2c1` [6-(2-Naphthylenyloxy)hexan-1-ol, 6-(2-naphthylenyloxy)hexan-1-ol] belongs 5 to 10 µg/mL (≈ 20.5 to 40.9 µM).

(Values after US4939173A, “Aryloxy alkanols as anti-retrovirus agents” (Merrell Dow Pharmaceuticals Inc., priority 1988, dated 1990).)
